From ChEMBL document CHEMBL4043072, “Catechin-Bound Ceanothane-Type Triterpenoid Derivatives from the Roots of Zizyphus jujuba” (J Nat Prod, 2017) come the findings set out here.

This assay in a line: Inhibition of cell proliferation of activated rat HSC-T6 cells incubated for 24 hrs by MTT assay. Format: functional, cell-based. The note with it: HSC-T6, 24 h.

pIC50: −log10 of the molar value.

As to `C=C(C)[C@@H]1CC[C@]2(C(=O)O)CC[C@]3(C)[C@H](CC[C@@H]4[C@@]5(C)[C@H]6C(=O)c7c(cc(O)c8c7O[C@@H](c7ccc(O)c(O)c7)[C@@H](O)C8)O[C@@H]6C(C)(C)[C@@H]5CC[C@]43C)[C@@H]12`, the pIC50 (as a rule, the IC50 on a negative log10 scale, so that one unit is a factor of ten) was 4.36. Turning to `O=C(O[C@@H]1Cc2c(O)cc(O)cc2O[C@@H]1c1cc(O)c(O)c(O)c1)c1cc(O)c(O)c(O)c1` [EPIGALOCATECHIN GALLATE], the negative logarithm of the IC50 (pIC50) is 4.50. The pIC50 values of the last two compounds are within 0.2 log units of each other.
